From patent US7211678B2, “Stable crystals of pyrrole compound” (Nippon Shinyaku Co., Ltd., priority 2001, dated 2007)

What was measured:
[1] = as described in WO96/40634; cited from earlier work
[2] = Dry grinding test (planet ball mill, evaluated by powder X-ray spectrum); assay type: physicochemical; details: 1 g, 2480 rpm for 5 hours
Experimental: Type-I crystal (1 g) and type-II crystal (1 g) were respectively charged in a planet ball mill (manufactured by Fritsch Japan) and then grinded at 2480 rpm for 5 hours. The grinded crystals were evaluated by a powder X-ray spectrum.

SMILES | urinary bladder capacity increasing activity [1] | crystal transition after dry grinding [2]
Cc1c(-c2ccccc2F)[nH]c(N)c1C#N [the pyrrole compound, 2-amino-3-cyano-4-methyl-5-(2-fluorophenyl)pyrrole] | excellent urinary bladder capacity increasing activity | 
Cc1c(-c2ccccc2F)[nH]c(N)c1C#N [type-I crystal, 2-amino-3-cyano-4-methyl-5-(2-fluorophenyl)pyrrole] |  | No crystal transition was recognized
Cc1c(-c2ccccc2F)[nH]c(N)c1C#N [type-II crystal, 2-amino-3-cyano-4-methyl-5-(2-fluorophenyl)pyrrole, reference compound] |  | transition of crystals into type-I crystal was recognized
